Experimental data from patent US20020026053A1, “Novel 3-(substituted) -2- indolinones compounds and use thereof as inhibitors of protein kinase activity” (priority 1997, published 2002).

test system: PDGF-R; assay: PDGF-R Assay (cellular ELISA, U1242 cells); type: cell-based; set-up: concentration or dose not given beside the values
Summary of the method: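 U1242 cells seeded in 0.5% serum, serum-starved, then exposed to compound for 2 hr at 37°C before 5–10 min ligand stimulation and lysis in HNTG. Lysate captured on receptor-antibody-coated plates; phosphotyrosine detected with polyclonal anti-pTyr, goat anti-rabbit IgG and ABTS/H2O2, A410 (ref 630 nm), versus untreated cells.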

| SMILES | PDGF Kinase % Inhibition (P.119) |
| --- | --- |
| Cc1c(Br)ccc2c1C(=Cc1ccccc1C(F)(F)F)C(=O)N2 [10736/C03] | 25.5% |
| CNS(=O)(=O)c1ccc2c(c1)C(=Cc1cccc(Cl)c1)C(=O)N2 [10736/D06] | 19.8% |
| O=C1Nc2ccc(I)cc2C1=Cc1cccc(Cl)c1 [10736/B06] | 20.7% |
| Cc1c(Br)ccc2c1C(=Cc1cccc(Cl)c1)C(=O)N2 [10736/C06] | 26.4% |
| Cc1c(Br)cc(Br)c2c1C(=Cc1ccc(Cl)cc1Cl)C(=O)N2 [10735/H10] | −0.2% |
| O=C1Nc2c(Br)cc(Br)cc2C1=Cc1cccc(F)c1 [10736/A07] | 8.4% |
| O=C1Nc2ccc(S(=O)(=O)Nc3ccc(C(F)(F)F)cc3)cc2C1=Cc1ccc(Cl)cc1 [10736/E02] | 21.5% |
| O=C1Nc2ccc(S(=O)(=O)N3CCOCC3)cc2C1=Cc1cccc(F)c1 [10736/F07] | −4.3% |
| CNS(=O)(=O)c1ccc2c(c1)C(=Cc1cccc(OC)c1)C(=O)N2 [10736/D10] | −2.1% |
| Cc1cccc(C=C2C(=O)Nc3ccc(I)cc32)c1 [10736/B04] | 11.9% |
| O=C1Nc2ccc(S(=O)(=O)Nc3ccc(C(F)(F)F)cc3)cc2C1=Cc1cccc(F)c1 [10736/E07] | 18.5% |
| Cc1ccc(C=C2C(=O)Nc3ccc(I)cc32)cc1 [10736/B05] | −3.0% |
| O=C1Nc2ccc(S(=O)(=O)Nc3ccc(C(F)(F)F)cc3)cc2C1=Cc1ccccc1C(F)(F)F [10736/E03] | 96.1% |
| COc1cccc(C=C2C(=O)Nc3ccc(S(=O)(=O)Nc4ccc(C(F)(F)F)cc4)cc32)c1 [10736/E10] | 26.8% |
| COc1cccc(C=C2C(=O)Nc3ccc(I)cc32)c1 [10736/B10] | 1.8% |
| CCc1ccc(C=C2C(=O)Nc3ccc(S(=O)(=O)N4CCOCC4)cc32)cc1 [10736/F09] | 2.7% |
| O=C1Nc2ccc(S(=O)(=O)N3CCOCC3)cc2C1=Cc1ccccc1F [10736/F08] | −20.1% |
| CCc1ccc(C=C2C(=O)Nc3ccc(Br)c(C)c32)cc1 [10736/C09] | −9.6% |
| O=C1Nc2ccc(I)cc2C1=Cc1ccccc1F [10736/B08] | −0.4% |
| N#Cc1ccccc1C=C1C(=O)Nc2ccc(CCCl)cc21 [10735/G07] | 12.6% |
| Cc1ccc(C=C2C(=O)Nc3c(Br)cc(Br)cc32)cc1 [10736/A05] | 8.4% |
| COc1cccc(C=C2C(=O)Nc3ccc(Br)c(C)c32)c1 [10736/C10] | 1.4% |
| O=C1Nc2ccc(S(=O)(=O)Nc3ccc(C(F)(F)F)cc3)cc2C1=Cc1ccccc1Cl [10736/E11] | 0.9% |
| O=C1Nc2ccc(CCCl)cc2C1=Cc1ccc(Cl)cc1Cl [10735/G10] | −8.8% |
| Cc1cccc(C=C2C(=O)Nc3ccc(S(=O)(=O)Nc4ccc(C(F)(F)F)cc4)cc32)c1 [10736/E04] | 24.6% |

| SMILES | PDGF Kinase % Inhibition (P.119) |
| --- | --- |
| COc1cccc(C=C2C(=O)Nc3c(Br)cc(Br)cc32)c1 [10736/A10] | 5.8% |
| O=C1Nc2c(Br)cc(Br)cc2C1=Cc1cccc(Cl)c1 [10736/A06] | 32.1% |
| Cc1cccc(C=C2C(=O)Nc3ccc(S(=O)(=O)N4CCOCC4)cc32)c1 [10736/F04] | 3.6% |
| CCc1ccc(C=C2C(=O)Nc3ccc(I)cc32)cc1 [10736/B09] | 7.1% |
| O=C1Nc2ccc(S(=O)(=O)N3CCOCC3)cc2C1=Cc1cccc(Cl)c1 [10736/F06] | 12.3% |
| Cc1ccc(C=C2C(=O)Nc3ccc(Br)c(C)c32)cc1 [10736/C05] | 16.7% |
| Cc1c(Br)ccc2c1C(=Cc1cccc(F)c1)C(=O)N2 [10736/C07] | 14.1% |
| CNS(=O)(=O)c1ccc2c(c1)C(=Cc1cccc(F)c1)C(=O)N2 [10736/D07] | 4.4% |
| O=C1Nc2ccc(I)cc2C1=Cc1ccc(Cl)cc1 [10736/B02] | −10.0% |
| O=C1Nc2c(Br)cc(Br)cc2C1=Cc1ccc(Cl)cc1 [10736/A02] | 24.2% |
| Cc1cccc(C=C2C(=O)Nc3ccc(Br)c(C)c32)c1 [10736/C04] | 8.4% |
| Cc1c(Br)cc(Br)c2c1C(=Cc1cccc3ccccc13)C(=O)N2 [10735/H09] | 6.4% |
| Cc1c(Br)ccc2c1C(=Cc1ccccc1Cl)C(=O)N2 [10736/C11] | 0.5% |
| Cc1cccc(C=C2C(=O)Nc3c(Br)cc(Br)cc32)c1 [10736/A04] | 13.2% |
| O=C1Nc2ccc(S(=O)(=O)N3CCOCC3)cc2C1=Cc1ccccc1C(F)(F)F [10736/F03] | −3.0% |
| O=C1Nc2ccc(I)cc2C1=Cc1ccccc1C(F)(F)F [10736/B03] | 63.2% |
| Cc1ccccc1C=C1C(=O)Nc2c(Br)cc(Br)c(C)c21 [10735/H02] | −4.7% |
| Cc1c(Br)ccc2c1C(=Cc1ccccc1F)C(=O)N2 [10736/C08] | 1.4% |
| O=C1Nc2ccc(S(=O)(=O)N3CCOCC3)cc2C1=Cc1ccc(Cl)cc1 [10736/F02] | −14.4% |
| O=C1Nc2c(Br)cc(Br)cc2C1=Cc1ccccc1F [10736/A08] | 11.0% |
| O=C1Nc2ccc(CCCl)cc2C1=Cc1c(F)cccc1F [10735/G08] | 9.8% |
| Cc1c(Br)cc(Br)c2c1C(=Cc1cc(C(F)(F)F)cc(C(F)(F)F)c1)C(=O)N2 [10735/H06] | 6.4% |
| Cc1c(Br)cc(Br)c2c1C(=Cc1c(F)cccc1F)C(=O)N2 [10735/H08] | −2.6% |
| O=C1Nc2ccc(S(=O)(=O)Nc3ccc(C(F)(F)F)cc3)cc2C1=Cc1cccc(Cl)c1 [10736/E06] | 10.6% |
| O=C1Nc2ccc(CCCl)cc2C1=Cc1ccc(-c2ccccc2)cc1 [10735/G11] | −5.3% |

| SMILES | PDGF Kinase % Inhibition (P.119) |
| --- | --- |
| Cc1c(Br)cc(Br)c2c1C(=Cc1ccc(F)c(F)c1)C(=O)N2 [10735/H03] | 1.2% |
| Cc1c(Br)cc(Br)c2c1C(=Cc1cccc(C(F)(F)F)c1)C(=O)N2 [10735/H05] | 9.1% |
| O=C1Nc2c(Br)cc(Br)cc2C1=Cc1ccccc1Cl [10736/A11] | −5.6% |
| O=C1Nc2ccc(I)cc2C1=Cc1ccccc1Cl [10736/B11] | −15.3% |
| Cc1c(Br)cc(Br)c2c1C(=Cc1ccccc1C#N)C(=O)N2 [10735/H07] | −0.9% |
| CNS(=O)(=O)c1ccc2c(c1)C(=Cc1ccccc1Cl)C(=O)N2 [10736/D11] | −4.3% |
| CNS(=O)(=O)c1ccc2c(c1)C(=Cc1cccc(C)c1)C(=O)N2 [10736/D04] | 15.0% |
| O=C1Nc2ccc(CCCl)cc2C1=Cc1cccc2ccccc12 [10735/G09] | 2.2% |
| CNS(=O)(=O)c1ccc2c(c1)C(=Cc1ccccc1C(F)(F)F)C(=O)N2 [10736/D03] | 14.5% |
| Cc1c(Br)ccc2c1C(=Cc1ccc(Cl)cc1)C(=O)N2 [10736/C02] | 2.7% |
| CNS(=O)(=O)c1ccc2c(c1)C(=Cc1ccc(Cl)cc1)C(=O)N2 [10736/D02] | −10.5% |
| CCc1ccc(C=C2C(=O)Nc3ccc(S(=O)(=O)NC)cc32)cc1 [10736/D09] | −6.5% |
| O=C1Nc2ccc(I)cc2C1=Cc1cccc(F)c1 [10736/B07] | 20.7% |
| Cc1ccc(C=C2C(=O)Nc3ccc(S(=O)(=O)Nc4ccc(C(F)(F)F)cc4)cc32)cc1 [10736/E05] | 18.5% |
| Cc1c(Br)cc(Br)c2c1C(=Cc1ccc(-c3ccccc3)cc1)C(=O)N2 [10735/H11] | 1.9% |
| Cc1ccc(C=C2C(=O)Nc3ccc(S(=O)(=O)N4CCOCC4)cc32)cc1 [10736/F05] | −4.8% |
| CCc1ccc(C=C2C(=O)Nc3c(Br)cc(Br)cc32)cc1 [10736/A09] | −6.5% |
| CNS(=O)(=O)c1ccc2c(c1)C(=Cc1ccccc1F)C(=O)N2 [10736/D08] | 1.8% |
| O=C1Nc2ccc(S(=O)(=O)Nc3ccc(C(F)(F)F)cc3)cc2C1=Cc1ccccc1F [10736/E08] | 7.9% |
| O=C1Nc2c(Br)cc(Br)cc2C1=Cc1ccccc1C(F)(F)F [10736/A03] | 31.6% |
| Cc1c(Br)cc(Br)c2c1C(=Cc1cc(F)cc(F)c1)C(=O)N2 [10735/H04] | 1.2% |
| CCc1ccc(C=C2C(=O)Nc3ccc(S(=O)(=O)Nc4ccc(C(F)(F)F)cc4)cc32)cc1 [10736/E09] | −0.4% |
| CNS(=O)(=O)c1ccc2c(c1)C(=Cc1ccc(C)cc1)C(=O)N2 [10736/D05] | 3.6% |
